Consider nine compounds from ChEMBL document CHEMBL1629628, “Methicillin-resistant and -susceptible Staphylococcus aureus strains of clonal lineages ST398 and ST9 from swine carry the multidrug resistance gene cfr” (2009).

In brackets after ≈: the same amount, converted by molar mass.

What all share (assay type): functional
Test [1] deals with Staphylococcus aureus. As to the kind of experiment: Antimicrobial activity against Staphylococcus aureus RN4220 transformed with Staphylococcus aureus ST9 plasmid pSCFS3 carrying cfr and fexA genes.
The test system of test [2] is Staphylococcus aureus. The experiment in a line: Antimicrobial activity against methicillin-susceptible Staphylococcus aureus ST9 expressing cfr, fexA and erm(C) genes.
Test [3] concerns Staphylococcus aureus. The experiment in a line: Antimicrobial activity against Staphylococcus aureus RN4220.
The subject of test [4] is Staphylococcus aureus. As to the kind of experiment: Antimicrobial activity against Staphylococcus aureus RN4220 transformed with Staphylococcus aureus ST398 plasmid pSCFS3 carrying cfr and fexA genes.
Test [5] has as its system Staphylococcus aureus. The experiment in a line: Antimicrobial activity against methicillin-resistant Staphylococcus aureus ST398 expressing cfr, fexA, erm(A), tet(M) and mecA genes.

For orientation: MIC means the least concentration at which growth counts as inhibited. Take `O=C(N[C@H](CO)[C@H](O)c1ccc([N+](=O)[O-])cc1)C(Cl)Cl` [CHLORAMPHENICOL]: the MIC in test [1] was ≥ 128 µg/mL; in test [2], ≥ 128 µg/mL; in test [3] it was 4 µg/mL (≈ 12.4 µM); in test [4], ≥ 128 µg/mL; in test [5] it was ≥ 128 µg/mL.
For the compound `CCC[C@@H]1C[C@@H](C(=O)N[C@@H]([C@H]2O[C@H](SC)[C@H](O)[C@@H](O)[C@H]2O)[C@H](C)Cl)N(C)C1` [CLINDAMYCIN], the MIC in test [1] was ≥ 64 µg/mL; in test [2] it was ≥ 64 µg/mL; in test [3], 0.125 µg/mL (≈ 0.294 µM); in test [4], ≥ 64 µg/mL; in test [5] it was ≥ 64 µg/mL.
On to `CC[C@H]1OC(=O)[C@H](C)[C@@H](O[C@H]2C[C@@](C)(OC)[C@@H](O)[C@H](C)O2)[C@H](C)[C@@H](O[C@@H]2O[C@H](C)C[C@H](N(C)C)[C@H]2O)[C@](C)(O)C[C@@H](C)C(=O)[C@H](C)[C@@H](O)[C@]1(C)O` [ERYTHROMYCIN], for which the MIC is 0.25 µg/mL (≈ 0.341 µM) in test [1]; ≥ 64 µg/mL in test [2]; 0.25 µg/mL (≈ 0.341 µM) in test [3]; 0.25 µg/mL (≈ 0.341 µM) in test [4]; ≥ 64 µg/mL in test [5].
On to `CS(=O)(=O)c1ccc([C@@H](O)[C@@H](CF)NC(=O)C(Cl)Cl)cc1` [FLORFENICOL], for which the MIC is 128 µg/mL (≈ 357 µM) in test [1]; ≥ 128 µg/mL in test [2]; 2 µg/mL (≈ 5.58 µM) in test [3]; 128 µg/mL (≈ 357 µM) in test [4]; ≥ 128 µg/mL in test [5].
As to `CC(=O)NC[C@H]1CN(c2ccc(N3CCOCC3)c(F)c2)C(=O)O1` [LINEZOLID], the figures for the MIC in test [2] and in test [3] were 8 µg/mL (≈ 23.7 µM) and 0.5 µg/mL (≈ 1.48 µM), respectively.
On to `Cc1onc(-c2ccccc2)c1C(=O)N[C@@H]1C(=O)N2[C@@H]1SC(C)(C)[C@@H]2C(=O)O` [OXACILLIN], for which the MIC in test [1] was 0.06 µg/mL (≈ 0.149 µM); in test [2], 0.06 µg/mL (≈ 0.149 µM); in test [3], 0.06 µg/mL (≈ 0.149 µM); in test [4], 0.06 µg/mL (≈ 0.149 µM); in test [5], ≥ 32 µg/mL.
Turning to `CN(C)[C@@H]1C(O)=C(C(N)=O)C(=O)[C@@]2(O)C(O)=C3C(=O)c4c(O)cccc4[C@@](C)(O)[C@H]3C[C@@H]12` [TETRACYCLINE], the MIC came to 0.25 µg/mL (≈ 0.563 µM) in test [1]; 0.12 µg/mL (≈ 0.27 µM) in test [2]; 0.25 µg/mL (≈ 0.563 µM) in test [3]; 0.25 µg/mL (≈ 0.563 µM) in test [4]; 64 µg/mL (≈ 144 µM) in test [5].
Turning to `C=C[C@]1(C)C[C@@H](OC(=O)CSCCN(CC)CC)[C@]2(C)[C@H](C)CC[C@]3(CCC(=O)[C@H]32)[C@@H](C)[C@@H]1O` [TIAMULIN], the MIC in test [1] was ≥ 128 µg/mL; in test [2], ≥ 128 µg/mL; in test [3] it was 0.063 µg/mL (≈ 0.128 µM); in test [4], ≥ 128 µg/mL; in test [5] it was ≥ 128 µg/mL.
In the case of `CC1=C\[C@@H](O)CC(=O)Cc2nc(co2)C(=O)N2CCC=C2C(=O)O[C@H](C(C)C)[C@H](C)/C=C/C(=O)NC\C=C\1` [VIRGINIAMYCIN FACTOR M1], the MIC in test [1] turned out to be 128 µg/mL (≈ 244 µM); in test [2] it was 128 µg/mL (≈ 244 µM); in test [3], 4 µg/mL (≈ 7.61 µM); in test [4], 128 µg/mL (≈ 244 µM); in test [5], 128 µg/mL (≈ 244 µM).
